The record followed here is patent US7491819B1 (priority 2004, dated 2009).

Where two headings read alike, the source gives them in different places.

One data set deals with T1, HIV-integrase (Human immunodeficiency virus type 1 group M subtype B, UniProt P12497).
T1 construct: Recombinant integrase (0.26 ng) was incubated with the beads
Nature of the data set: HIV-Integrase Inhibition Activity (SPA bead strand-transfer assay). The class given is biochemical. The method, boiled down:
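Strand-transfer read-out: CPM from P33-labelled target DNA (0.1 fmol) joined to bead-bound biotin substrate DNA (5 pmole), with EDTA stop at 10 mM final. Integrase (0.26 ng) prebound to streptavidin SPA beads 90 min, 37° C, and washed before adding inhibitor.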

The subject of another data set is NL-Rluc virus. Nature of the data set: Inhibition of HIV replication (recombinant NL-Rluc virus, luciferase). The format is cell-based. The following applies: Human immunodeficiency virus 1, read-out: Inhibition of HIV replication.
The mark [1] stands for this setting: Table 1, read-out: Activity (HIV-integrase inhibition, IC50 class).
Setting [2] is: Table 2a, read-out: HIV-Integrase Inhibition Activity.

Regarding `O=C(NCc1ccc(F)cc1)c1nc2n(c(=O)c1O)CCOC2` [Example 1, Pyrimido[2,1-c][1,4]oxazine-2-carboxamide, N-[(4-fluorophenyl)methyl]-4,6,7,9-tetrahydro-3-hydroxy-4-oxo-], the melting point worked out at 211 °C. Besides, at HIV-integrase (setting [1]), the IC50 lay within 2 to 100 nM.
`Cc1cc(CNC(=O)c2nc3n(c(=O)c2O)CCOC3)ccc1F` [Example 2, Pyrimido[2,1-c[]1,4]oxazine-2-carboxamide, N-[(4-fluoro-3-methylphenyl)methyl]-4,6,7,9-tetrahydro-3-hydroxy-4-oxo-] gave a melting point of 206 to 208 °C. For the same compound, on HIV-integrase (setting [1]), the IC50 fell in the range of 2 to 100 nM.
Take `CC1OCCn2c1nc(C(=O)NCc1ccc(F)cc1)c(O)c2=O` (centres unmarked) [Example 4, Pyrimido[2,1-c][1,4]oxazine-2-carboxamide, N-[(4-fluorophenyl)methyl]-4,6,7,9-tetrahydro-3-hydroxy-9-methyl-4-oxo-]: the melting point is 165 to 167 °C. The IC50 on HIV-integrase (setting [1]) lay in the range of 2 to 100 nM.
Compound `Cc1cc(CNC(=O)c2nc3n(c(=O)c2O)CCOC3C)ccc1F` (centres unmarked) [Example 5, Pyrimido[2,1-c][1,4]oxazine-2-carboxamide, N-[(4-fluoro-3-methylphenyl)methyl]-4,6,7,9-tetrahydro-3-hydroxy-9-methyl-4-oxo-] registered a melting point of 134 °C. Further, the IC50 at HIV-integrase (setting [1]) was in the range of 2 to 100 nM.
`CCC1(C)OCCn2c1nc(C(=O)NCc1ccc(F)cc1S(C)(=O)=O)c(O)c2=O` (centres unmarked) [Example 314, Pyrimido[2,1-c][1,4]oxazine-2-carboxamide, 9-ethyl-N-[[4-fluoro-2-(methylsulfonyl)phenyl]methyl]-4,6,7,9-tetrahydro-3-hydroxy-9-methyl-4-oxo-]: on HIV-integrase (setting [2]), the IC50 was in the range of 2 to 100 nM. For the same compound, in the data set with NL-Rluc virus, the EC50 fell in the range of 3 to 100 nM.
With `CCC1(C)OCCn2c1nc(C(=O)NCc1ccc(F)cc1S(=O)(=O)N(C)C)c(O)c2=O` (centres unmarked) [Example 315, Pyrimido[2,1-c][1,4]oxazine-2-carboxamide, N-[[2-[(dimethylamino)sulfonyl]-4-fluorophenyl]methyl]-9-ethyl-4,6,7,9-tetrahydro-3-hydroxy-9-methyl-4-oxo-], the IC50 at HIV-integrase (setting [2]) lay within 2 to 100 nM. The EC50 in the data set with NL-Rluc virus fell in the range of 3 to 100 nM.
As to `Cc1ncnn1-c1cc(F)ccc1CNC(=O)c1nc2n(c(=O)c1O)CCCOC2(C)C` [Example 316, 6H-Pyrimido[2,1-c][1,4]oxazepine-2-carboxamide, N-[[4-fluoro-2-(5-methyl-1H-1,2,4-triazol-1-yl)phenyl]methyl]-4,7,8,10-tetrahydro-3-hydroxy-10,10-dimethyl-4-oxo-], the IC50 at HIV-integrase (setting [2]) fell in the range of 2 to 100 nM. The EC50 in the data set on NL-Rluc virus is 3 to 100 nM.
Consider `Cc1ncn(-c2cc(F)ccc2CNC(=O)c2nc3n(c(=O)c2O)CCCOC3(C)C)n1` [Example 317, 6H-Pyrimido[2,1-c][1,4]oxazepine-2-carboxamide, N-[[4-fluoro-2-(3-methyl-1H-1,2,4-triazol-1-yl)phenyl]methyl]-4,7,8,10-tetrahydro-3-hydroxy-10,10-dimethyl-4-oxo-], for which, at HIV-integrase (setting [2]), the IC50 was 2 to 100 nM. Also, the EC50 with NL-Rluc virus is 3 to 100 nM.
As for `COP(=O)(OC)c1cc(F)ccc1CNC(=O)c1nc2n(c(=O)c1O)CCCOC2(C)C` [Example 318, Phosphonic acid, [5-fluoro-2-[[[(4,7,8,10-tetrahydro-3-hydroxy-10,10-dimethyl-4-oxo-6H-pyrimido[2,1-c][1,4]oxazepin-2-yl)carbonyl]amino]methyl]phenyl]-, dimethyl ester], at HIV-integrase (setting [2]), the IC50 lay within 2 to 100 nM. In addition, the EC50 with NL-Rluc virus was 3 to 100 nM.
Regarding `Cc1nc(C)n(-c2cc(F)ccc2CNC(=O)c2nc3n(c(=O)c2O)CCCOC3(C)C)n1` [Example 319, 6H-Pyrimido[2,1-c][1,4]oxazepine-2-carboxamide, N-[[2-(3,5-dimethyl-1H-1,2,4-triazol-1-yl)-4-fluorophenyl]methyl]-4,7,8,10-tetrahydro-3-hydroxy-10,10-dimethyl-4-oxo-], on HIV-integrase (setting [2]), the IC50 was 2 to 100 nM. Further, in the data set on NL-Rluc virus, the EC50 fell in the range of 3 to 100 nM.

The term melting point denotes the temperature of the solid-liquid transition.
